The results in this text go back to US9643916B2, “Low molecular weight cationic lipids for oligonucleotide delivery” (SIRNA THERAPEUTICS, INC., priority 2010, dated 2017).

The structures appear in SMILES notation.

Data set [1] is described as follows: Rat in vivo toxicity (serum ALT and AST). The conditions noted are these: Sprague-Dawley female rats, serum 24 hours after LNP dosing; compared with RDV containing octyl-CLinDMA; FIG. 3. Here is the method:
(§1) Six hours post dose, food is removed from the cages. Animal necropsy is performed 24 hours after LNP dosing. Rats are anesthetized under isoflurane for 5 minutes, then maintained under anesthesia by placing them in nose cones continuing the delivery of isoflurane until ex-sanguination is completed. Blood is collected from the vena cava using a 23 gauge butterfly venipuncture set and aliquoted to serum separator vacutainers for serum chemistry analysis. Punches of the excised caudate liver lobe are taken and placed in RNALater (Ambion) for mRNA analysis. Preserved liver tissue was homogenized and total RNA isolated using a Qiagen bead mill and the Qiagen miRNA-Easy RNA isolation kit following the manufacturer's instructions. Liver ApoB mRNA levels were determined by quantitative RT-PCR. Message was amplified from purified RNA utilizing a rat ApoB commercial probe set (Applied Biosystems Cat # RN01499054_m1). The PCR reaction was performed on an ABI 7500 instrument with a 96-well Fast Block. The ApoB mRNA level is normalized to the housekeeping PPIB (NM 011149) mRNA. PPIB mRNA levels were determined by RT-PCR using a commercial probe set (Applied Biosystems Cat. No. Mm00478295_m1). Results are expressed as a ratio of ApoB mRNA/PPIB mRNA. All mRNA data is expressed relative to the PBS control dose. […]

Data set [2] concerns mRNA transcript for the firefly (Photinus pyralis) luciferase gene. Nature of the data set: Mouse in vivo evaluation of efficacy (luciferase mouse model, liver luminescence by IVIS imaging). The conditions noted are these: LSL-Luc transgenic mice, Luc siRNA RDVs tail vein injected, 0.3 to 3 mg/kg siRNA, imaged 48 hours post dose; compared with RDV containing octyl-CLinDMA (OCD); FIG. 1. Here is the method: LNPs utilizing Compounds 1-2, in the nominal compositions described immediately above, were evaluated for in vivo efficacy and induction of inflammatory cytokines in a luciferase mouse model. The siRNA targets the mRNA transcript for the firefly (Photinus pyralis) luciferase gene (Accession #M15077). […] The in vivo luciferase model employs a transgenic mouse in which the firefly luciferase coding sequence is present in all cells. ROSA26-LoxP-Stop-LoxP-Luc (LSL-Luc) transgenic mice licensed from the Dana Farber Cancer Institute are induced to express the Luciferase gene by first removing the LSL sequence with a recombinant Ad-Cre virus (Vector Biolabs). Due to the organo-tropic nature of the virus, expression is limited to the liver when delivered via tail vein injection. Luciferase expression levels in liver are quantitated by measuring light output, using an IVIS imager (Xenogen) following administration of the luciferin substrate (Caliper Life Sciences). Pre-dose luminescence levels are measured prior to administration of the RDVs. Luciferin in PBS (15 mg/mL) is intraperitoneally (IP) injected in a volume of 150 μL. […] In vivo efficacy results are expressed as % inhibition of luminescence relative to pre-dose luminescence levels. Plasma cytokine levels were determined using the SearchLight multiplexed cytokine chemiluminescent array (Pierce/Thermo). […]

Data set [3] deals with mRNA transcript for the ApoB gene. Kind of data set: Rat in vivo evaluation of efficacy (liver ApoB mRNA by quantitative RT-PCR). The conditions noted are these: Sprague-Dawley female rats, ApoB siRNA RDV tail vein injected, necropsy 24 hours after dosing; compared with RDV containing octyl-CLinDMA; FIG. 2. Here is the method: as §1

In the case of `CCCCC/C=C\C/C=C\CCCCCCCCOC[C@H](COCCCCCCCC)N(C)C` [Compound 1, S-N,N-dimethyl-1-[(9Z,12Z)-octadeca-9,12-dien-1-yloxy]-3-(octyloxy)propan-2-amine], the “Elevations in LFTs (ALT/AST)” value in data set [1] is “lower elevations in LFTs (ALT/AST)”. Further, the “In vivo efficacy, % inhibition of luminescence relative to pre-dose luminescence levels” value in data set [2] was “Greater efficacy”. Moreover, the “In vivo efficacy, liver ApoB mRNA/PPIB mRNA relative to the PBS control dose” value in data set [3] is “Greater efficacy”.
